The test system of the series is Botryococcus sp. colonies. Put plainly: Flotation (buoyancy) of sunken colonies as visual readout of hydrocarbon content. The class given is cell-based. From the text: Previous investigations (Ohmori, et al. 1984; and Wolf, et al, 1985) verified that colonies containing greater than 20% of dry weight as botryococcenoid hydrocarbons were buoyant and that colonies containing less than 5% hydrocarbons remained sunken at the bottom of the culture vessel, providing a visual method for selecting cells with commercial-grade hydrocarbons. […] Colonies in hydrocarbon-enhancement were placed in the dark without supplemental carbon dioxide gas to eliminate artifacts of flotation from bubbles. Environmental conditions were 150 μE/m^2/sec PAR to 1700 μE/m^2/sec PAR at 25-37° Centigrade. Nutrient chemicals were reagent grade in all laboratory-scale experiments. In field-scale tests, fertilizer grade chemical nutrients were provided. In order to minimize or eliminate ammonia, nitrates were optionally kiln dried prior to admixture. Supplementation with 0.1% to 100% carbon dioxide gas or carbonate (e.g., 10 mg/ml sodium bicarbonate or potassium bicarbonate) increased hydrocarbon synthesis substantially, especially, when under the highest light intensities with soluble elements of the present invention. […]

phosphates: the “total phosphate concentration that stimulated the rise of colonies to the surface” value (subtractive matrix analysis, most rapid in presence of soluble Mg, Mn, Fe, Zn+2) is “greater than 80 mM”. Moreover, the “state of colonies after long exposure” value (two weeks or more in 300 mM phosphate) is recorded as “remained floating, but cleared to amber”.

The values are drawn from patent publication US7923228B2, “Methods and compositions for growth of hydrocarbons in Botryococcus sp” (priority 2005, dated 2011).
